We go through 25 compounds from patent publication US8501732B2, “Aminomethyl quinolone compounds” (Hoffmann-La Roche Inc., priority 2011, dated 2013).

In assay [1] the test system is phospho(Ser63)-c-jun in HK-2 cells. In words: Cell-Based Assay for JNK Inhibitors (in-cell ELISA, phospho(Ser63)-c-jun after TNFα). The following applies: HK-2 cells (human proximal tubule cells), 60 minutes compound, then 10 ng/mL TNFα for 30 minutes. In outline: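 HK-2 human proximal tubule cells were seeded at 40,000 cells/well, cultured 24 h, then serum-starved 16–24 h before TNFα stimulation with compound. Phospho(Ser63)-c-jun was quantified by in-cell ELISA on fixed, permeabilised cells, using a rabbit phospho-specific primary (overnight, 4 °C) and an HRP-linked anti-rabbit secondary. Absorbance was read at 450 nm.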
Background: In an ELISA, binding on a coated surface is turned into a signal by an enzyme label.

The target in assay [2] is JNK1 (Homo sapiens (Human), UniProt P45983). Kind of assay: In Vitro JNK1 Assay (TR-FRET, phosphorylation of GST-c-Jun). The assay is classed as biochemical. The following applies: 0.2 nM active JNK1 kinase, 26.7 nM GST-c-Jun, 2 μM ATP, 30 min at room temperature. An outline of the steps:
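IC50 derived from percent inhibition across 10 serially diluted concentrations, with TR-FRET detection of phospho-c-Jun via an anti-phospho-c-Jun antibody after EDTA stop. Substrate was GST-c-Jun 1-79, reacted 30 min at room temperature in pH 7.0 HEPES buffer with MgCl2, DTT, vanadate and BSA.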
For orientation: Time-resolved FRET reads energy transfer from a long-lived donor to a nearby acceptor.

Sequence of JNK1 (P45983 whole entry): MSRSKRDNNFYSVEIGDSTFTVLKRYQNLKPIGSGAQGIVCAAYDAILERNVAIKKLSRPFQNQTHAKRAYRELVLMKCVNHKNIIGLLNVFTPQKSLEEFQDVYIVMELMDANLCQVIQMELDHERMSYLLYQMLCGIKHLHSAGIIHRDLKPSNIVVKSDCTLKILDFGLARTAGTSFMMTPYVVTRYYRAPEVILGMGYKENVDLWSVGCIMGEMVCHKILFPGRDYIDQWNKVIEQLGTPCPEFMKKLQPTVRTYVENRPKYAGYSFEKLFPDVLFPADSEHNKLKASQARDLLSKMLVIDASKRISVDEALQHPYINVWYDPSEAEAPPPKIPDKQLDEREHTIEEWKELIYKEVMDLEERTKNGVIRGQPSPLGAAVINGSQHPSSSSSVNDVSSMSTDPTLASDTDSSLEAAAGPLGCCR

`COC(=O)c1c(CNC(=O)c2ccc(C(N)=O)cc2)c(=O)c2ccc(C(F)(F)F)nc2n1-c1ccccc1` [Example I-155, 3-[(4-Carbamoyl-benzoylamino)-methyl]-4-oxo-1-phenyl-7-trifluoromethyl-1,4-dihydro-[1,8]naphthyridine-2-carboxylic acid methyl ester] had an EC50 in assay [1] of 14 µM. In assay [2], 0.027 µM corresponded to half-maximal inhibition (IC50).
Compound `COC(=O)c1c(CNC(=O)c2ccc3scnc3c2)c(=O)c2ccc(Cl)cc2n1-c1ccccc1` [Example I-113, 3-{[(Benzothiazole-5-carbonyl)-amino]-methyl}-7-chloro-4-oxo-1-phenyl-1,4-dihydro-quinoline-2-carboxylic acid methyl ester] gave an EC50 in assay [1] of 2 µM. The compound further returned an IC50 in assay [2] of 0.007 µM.
For the compound `O=C(NCc1cn(-c2ccccc2)c2cc(Cl)ccc2c1=O)c1ccc(N2CCCC2)nc1` [Example I-84, N-(7-Chloro-4-oxo-1-phenyl-1,4-dihydro-quinolin-3-ylmethyl)-6-pyrrolidin-1-yl-nicotinamide], the 50% effective concentration (EC50) in assay [1] was found to be 52 µM. In assay [2], this compound yielded a 50% inhibitory concentration (IC50) of 0.1 µM.
Taken in the same sequence, the figures for `COC(=O)c1ccc(C(=O)NCc2c(C(=O)OC)n(-c3ccccc3)c3cc(Cl)ccc3c2=O)cc1` [Example I-133, 7-Chloro-3-[(4-methoxycarbonyl-benzoylamino)-methyl]-4-oxo-1-phenyl-1,4-dihydro-quinoline-2-carboxylic acid methyl ester] were 13 µM and 0.006 µM.
Taken in the same sequence, the figures for `COC(=O)c1c(CNC(=O)c2ccc3cc[nH]c3c2)c(=O)c2ccc(C(F)(F)F)nc2n1-c1ccccc1` [Example I-158, 3-{[(1H-Indole-6-carbonyl)-amino]-methyl}-4-oxo-1-phenyl-7-trifluoromethyl-1,4-dihydro-[1,8]naphthyridine-2-carboxylic acid methyl ester] were 10 µM and 0.079 µM.
Taken in the same sequence, the figures for `O=C(NCc1cn(-c2ccccc2)c2cc(Cl)ccc2c1=O)c1cnc(N2CCS(=O)(=O)CC2)s1` [Example I-97, 2-(1,1-Dioxo-thiomorpholin-4-yl)-thiazole-5-carboxylic acid (7-chloro-4-oxo-1-phenyl-1,4-dihydro-quinolin-3-ylmethyl)-amide] were 39 µM and 0.069 µM.
For the compound `COC(=O)c1c(CNC(=O)c2ccncc2)c(=O)c2ccc(Cl)cc2n1-c1ccccc1` [Example I-136, 7-Chloro-4-oxo-1-phenyl-3-{[(pyridine-4-carbonyl)-amino]-methyl}-1,4-di-hydro-quinoline-2-carboxylic acid methyl ester], in assay [1], the EC50 is 7.9 µM. Besides, the concentration for half-maximal inhibition (IC50) in assay [2] turned out to be 0.012 µM.
As for `COC(=O)c1c(CNC(=O)c2ccc(F)cc2)c(=O)c2ccc(Cl)cc2n1-c1ccccc1` [Example I-140, 7-Chloro-3-[(4-fluoro-benzoylamino)-methyl]-4-oxo-1-phenyl-1,4-dihydro-quinoline-2-carboxylic acid methyl ester], it took 10 µM to reach a half-maximal effect in assay [1] (EC50). This compound returned a half-maximal inhibitory concentration (IC50) in assay [2] of 0.014 µM.
As for `COC(=O)c1c(CNC(=O)c2ccc(S(N)(=O)=O)cc2)c(=O)c2ccc(Cl)cc2n1-c1ccccc1` [Example I-115, 7-Chloro-4-oxo-1-phenyl-3-[(4-sulfamoyl-benzoylamino)-methyl]-1,4-dihydro-quinoline-2-carboxylic acid methyl ester], the EC50 in assay [1] worked out at 2.4 µM. In addition, the half-inhibitory concentration (IC50) in assay [2] was found to be 0.008 µM.
In assay [1], `COC(=O)c1c(CNC(=O)c2ccc(-c3ccn[nH]3)cc2)c(=O)c2ccc(C(F)(F)F)nc2n1-c1ccccc1` [Example I-156, 4-Oxo-1-phenyl-3-{[4-(2H-pyrazol-3-yl)-benzoylamino]-methyl}-7-trifluoromethyl-1,4-dihydro-[1,8]naphthyridine-2-carboxylic acid methyl ester] registered an EC50 of 8.7 µM. The compound further gave an IC50 in assay [2] of 0.03 µM.
The compound `O=C(NCc1c(-c2ncco2)n(-c2ccccc2)c2cc(Cl)ccc2c1=O)c1ccnc(N2CCOCC2)c1` [Example I-2, N-(7-Chloro-2-oxazol-2-yl-4-oxo-1-phenyl-1,4-dihydro-quinolin-3-ylmethyl)-2-morpholin-4-yl-isonicotinamide] showed an EC50 in assay [1] of 2.7 µM. This compound also gave a 50% inhibitory concentration (IC50) in assay [2] of 0.007 µM.
As to `COC(=O)c1c(CNC(=O)c2ccc(-c3cnco3)cc2)c(=O)c2ccc(Cl)cc2n1-c1ccccc1` [Example I-110, 7-Chloro-3-[(4-oxazol-5-yl-benzoylamino)-methyl]-4-oxo-1-phenyl-1,4-dihydro-quinoline-2-carboxylic acid methyl ester], in assay [1], the midpoint of the response, the EC50, lay at 4 µM. This compound also displayed an IC50 in assay [2] of 0.004 µM.
For `COC(=O)c1c(CNC(=O)c2ccc3cc[nH]c3c2)c(=O)c2ccc(Cl)cc2n1-c1ccccc1` [Example I-120, 7-Chloro-3-{[(1H-indole-6-carbonyl)-amino]-methyl}-4-oxo-1-phenyl-1,4-dihydro-quinoline-2-carboxylic acid methyl ester], in assay [1], the EC50 is 3 µM. In addition, the IC50 in assay [2] amounted to 0.015 µM.
With `O=C(NCc1cn(-c2ccccc2)c2cc(Cl)ccc2c1=O)c1ccn(Cc2ccc(Cl)cc2)c(=O)c1` [Example I-34, 1-(4-Chloro-benzyl)-2-oxo-1,2-dihydro-pyridine-4-carboxylic acid (7-chloro-4-oxo-1-phenyl-1,4-dihydro-quinolin-3-ylmethyl)-amide], the EC50 in assay [1] stood at 12 µM. In assay [2], this compound yielded an IC50 of 0.044 µM.
As to `O=C(NCc1cn(-c2ccccc2F)c2cc(F)ccc2c1=O)c1ccc(N2CCOCC2)nc1` [Example I-108, N-[7-Fluoro-1-(2-fluoro-phenyl)-4-oxo-1,4-dihydro-quinolin-3-ylmethyl]-6-morpholin-4-yl-nicotinamide], the concentration giving a half-maximal response (EC50) in assay [1] worked out at 47 µM. The compound also showed a concentration for half-maximal inhibition (IC50) in assay [2] of 0.12 µM.
On to `CN(C)C(=O)c1c(CNC(=O)c2cnn(C)c2)c(=O)c2ccc(Cl)cc2n1-c1ccccc1` [Example I-23, 7-Chloro-3-{[(1-methyl-1H-pyrazole-4-carbonyl)-amino]-methyl}-4-oxo-1-phenyl-1,4-dihydro-quinoline-2-carboxylic acid dimethylamide], for which a half-maximal response in assay [1] (EC50) required 87 µM. In assay [2], the 50% inhibitory concentration (IC50) stood at 0.78 µM.
Taken in the same sequence, the figures for `O=C(NCc1c(-c2ncco2)n(-c2ccccc2)c2ncccc2c1=O)c1ccc(N2CCOCC2)nc1` [Example I-10, 6-Morpholin-4-yl-N-(2-oxazol-2-yl-4-oxo-1-phenyl-1,4-dihydro-[1,8]naphthyridin-3-ylmethyl)-nicotinamide] were 5.2 µM and 0.029 µM.
The compound `COC(=O)c1c(CNC(=O)c2ccc(F)c(Cl)c2)c(=O)c2ccc(Cl)cc2n1-c1ccccc1` [Example I-141, 7-Chloro-3-[(3-chloro-4-fluoro-benzoylamino)-methyl]-4-oxo-1-phenyl-1,4-dihydro-quinoline-2-carboxylic acid methyl ester] came in with a concentration for a half-maximal effect (EC50) in assay [1] of 7 µM. In assay [2], this compound came in with a half-maximal inhibitory concentration (IC50) of 0.015 µM.
Taken in the same sequence, the figures for `O=C(NCc1cn(-c2ccccc2)c2cc(Cl)ccc2c1=O)c1ccc(N2CCCCC2)nc1` [Example I-65, 3,4,5,6-Tetrahydro-2H-[1,2′]bipyridinyl-5′-carboxylic acid (7-chloro-4-oxo-1-phenyl-1,4-dihydro-quinolin-3-ylmethyl)-amide] were 40 µM and 0.019 µM.
As for `CC(C)(C)OC(=O)NC1CCN(c2ccc(C(=O)NCc3cn(-c4ccccc4)c4cc(Cl)ccc4c3=O)cn2)CC1` [Example I-81, {5′-[(7-Chloro-4-oxo-1-phenyl-1,4-dihydro-quinolin-3-ylmethyl)-carbamoyl]-3,4,5,6-tetrahydro-2H-[1,2]bipyridinyl-4-yl}-carbamic acid tert-butyl ester], in assay [1], the EC50 was 100 µM. This compound gave an IC50 in assay [2] of 0.065 µM.
In turn, `CN(C)C(=O)c1c(CNC(=O)c2ccc(N3CCC(CO)CC3)nc2)c(=O)c2ccc(Cl)cc2n1-c1ccccc1` [Example I-24, 4-Hydroxymethyl-3,4,5,6-tetrahydro-2H-[1,2′]bipyridinyl-5′-carboxylic acid (7-chloro-2-dimethylcarbamoyl-4-oxo-1-phenyl-1,4-dihydro-quinolin-3-ylmethyl)-amide] registered a concentration for a half-maximal effect (EC50) in assay [1] of 11 µM. In assay [2], the half-inhibitory concentration (IC50) came to 0.14 µM.
Regarding `COC(=O)c1c(CNC(=O)c2ccc(-c3cnns3)cc2)c(=O)c2ccc(Cl)cc2n1-c1ccccc1` [Example I-124, 7-Chloro-4-oxo-1-phenyl-3-[(4-[1,2,3]thiadiazol-5-yl-benzoylamino)-methyl]-1,4-dihydro-quinoline-2-carboxylic acid methyl ester], the response in assay [1] was half-maximal at 7.8 µM (EC50). For the same compound, in assay [2], inhibition was half-maximal at 0.017 µM (IC50).
The matching figures for `O=C(NCc1c(-c2ncco2)n(-c2ccccc2)c2cc(Cl)ccc2c1=O)c1ccc(N2CCOCC2)nc1` [Example I-3, N-(7-Chloro-2-oxazol-2-yl-4-oxo-1-phenyl-1,4-dihydro-quinolin-3-ylmethyl)-6-morpholin-4-yl-nicotinamide]: 3.1 µM and 0.009 µM.
The matching figures for `CN(C)C(=O)c1c(CNC(=O)c2ccc(N3CCOCC3)nc2)c(=O)c2ccc(Cl)cc2n1-c1ccccc1` [Example I-13, 7-Chloro-3-{[(6-morpholin-4-yl-pyridine-3-carbonyl)-amino]-methyl}-4-oxo-1-phenyl-1,4-dihydro-quinoline-2-carboxylic acid dimethylamide]: 37 µM and 0.035 µM.
The matching figures for `COC(=O)c1c(CNC(=O)c2ccc(-c3cc[nH]n3)cc2)c(=O)c2ccc(Cl)cc2n1-c1ccccc1` [Example I-122, 7-Chloro-4-oxo-1-phenyl-3-{[4-(1H-pyrazol-3-yl)-benzoylamino]-methyl}-1,4-dihydro-quinoline-2-carboxylic acid methyl ester]: 3.3 µM and 0.015 µM.

The EC50 is the concentration that produces a half-maximal response. A word on the IC50: it is the concentration at which inhibition is half-maximal. High values mean lower potency, low ones higher potency.
